Test results as given in ChEMBL document CHEMBL1157539, “Thousands of chemical starting points for antimalarial lead identification” (Nature, 2010).

Test system: Plasmodium falciparum
Assay: GSK_TCMDC: Inhibition of Plasmodium falciparum 3D7 in whole erythrocytes, using parasite LDH activity as an index of growth.
Assay type: functional, organism-based
Conditions: Plasmodium falciparum, 3D7

Compound	XC50 [nM]
CCN1CCC(N(Cc2ccc(-c3ccc(Cl)cc3)cc2)C(=O)Cn2c(CCc3cccc(F)c3F)cc(=O)c3ccccc32)CC1	703
CC1CC(C)CN(CCCNc2ccc(C(=O)Nc3ccc(C(F)(F)F)cc3)cc2[N+](=O)[O-])C1 (stereo unspecified)	203
O=C(/C=C/c1ccc(Cl)c(Cl)c1)NCCCCN1CCC(c2c[nH]c3ccccc23)CC1	859
Clc1ccc(CNC2CCN(CC3CCCCC3)CC2)cc1	1110
CN1CCCN(Cc2ccc(-c3cccc(NC(=O)c4cccc(Cl)c4)c3)cc2)CC1	837
Cc1nc(-c2nc(N3CCC(C(N)=O)CC3)ncc2-c2ccsc2)sc1C	902
CCCN1CCN(CCCNC(=O)c2cc3c(-c4ccc(Cl)cc4)nn(C)c3s2)CC1	1100
CC(C)C[C@H](NC(=O)c1ccc(OCCN2CCOCC2)cc1)C(=O)NC(/C=N/N1CCCC1=O)C(C)C (stereo partly specified)	248
Fc1ccc2[nH]c(-c3ccc(-c4ccc(CN5CCN(CCN6CCOCC6)CC5)cc4)s3)nc2c1	147
CN1CCN(Cc2ccc(OCc3cccc(COc4ccc(CN5CCN(C)CC5)cc4I)c3)c(I)c2)CC1	1010
CCC(CC(C)C(=O)O)=C(c1ccccc1)c1ccccc1 (stereo unspecified)	224
Cc1nc(C)c(-c2ccc(Oc3ccc(Cl)c(Cl)c3)cc2)c(O)c1Cl	106
Nc1nc(N)c2c(ccc3c2cnn3Cc2cccnc2)n1	48.1
CN(C)CCNCc1ccc(-c2ccc(-c3nc4ccccc4[nH]3)s2)cc1	569
CC(C)(C)CCOC(=O)N1CCc2c(cc(O)c(O)c2Cl)C(c2ccc(O)cc2)C1 (stereo unspecified)	752
Cc1c(C)n(C2CCCCC2)c2ncnc(OC3CCN(CC(=O)NC4CC4)CC3)c12	1240
CCCCOc1ccc(-c2nc3ccccc3[nH]2)cc1	865
Cc1ccc(Cc2c(N)nc3nc(N)nc(N)c3c2C)cc1	188
Cc1cc(NC(=O)c2cccs2)ccc1OC1CCN(Cc2ccc(C#N)cc2)CC1	721
Cn1ccnc1Sc1ncccc1[N+](=O)[O-]	968
CC(=O)Nc1ccc(C(=O)Nc2ccc(-c3cccc(-c4nc5cc(C(F)(F)F)ccc5[nH]4)c3)cc2)cn1	111
Fc1ccc2[nH]c(-c3ccc(-c4ccc(CN5CCC(CCN6CCCCC6)CC5)cc4)s3)nc2c1	142
Cc1cc(N(C)CCCN(C)C)nc(Nc2ccc(Br)cc2)n1	643
CC(=O)Nc1ccc(OCCCN(Cc2ccccc2OC(F)(F)F)c2ccc(C(F)(F)F)c(C#N)c2)c(Cl)c1	813

Compound	XC50 [nM]
Cc1nc2nc(N)nc(N)c2c(C)c1Cc1cccc(C(N)=O)c1	1080
O=C(NC1CCN(Cc2ccccc2)CC1)c1cc(-c2ccncc2)c(-c2ccc(Cl)c(O)c2)o1	407
CC(C)(C)OC(=O)c1c(NC(=O)/C=C/c2ccc(O)c(O)c2)sc2c1CCCC2	819
Cc1[nH]c(C)c(-c2ccc(Br)cc2)c(=O)c1Cl	844
COc1ccc(OC)c(-c2ccc(O)c(CNCC(C)c3ccccc3)c2)c1 (stereo unspecified)	933
COc1ccc(/C=C/C(=O)Nc2ccc(-c3ccncc3)cc2)cc1CCCN(C)C	753
CC(C)(C)c1ccc(CNCC(C)(C)c2nc(-c3ccnc(N)n3)c(-c3ccc(Cl)c(O)c3)[nH]2)cc1	697
O=C(Nc1cccc(C(F)(F)F)c1)c1ccc(S(=O)(=O)NCC2CCCN(CC3CCCCC3)C2)cc1 (stereo unspecified)	899
CCOc1cc(Cl)c(C(C)NC(=O)c2cccc(OC)c2)cc1OCC (stereo unspecified)	956
O=C(Nc1ccc(NC2=NCCN2)cc1)c1ccc(C(=O)Nc2ccc(NC3=NCCN3)cc2)cc1	649
O=C(/C=C/c1ccc(C(F)(F)F)cc1)NCCCCCN1CCN(C(=O)Nc2ccc(Cl)c(Cl)c2)CC1	867
Cc1ccc2c(c1)c(-c1ccccc1)c(-c1ccccc1)n2CC(O)CN1CCN(CC=Cc2ccccc2)CC1 (stereo unspecified)	782
CCCNCc1ccc(-c2ccc(CN(CCOC)C(=O)CCc3ccc(OC)cc3)cc2)nc1	981
CN(C)CCCNc1ncnc2c1[nH]c1ccc(Cl)cc12	279
Cc1ccc(C2(C)CC(C)(C)N(C(=O)COc3ccc4ccccc4c3)c3ccccc32)cc1 (stereo unspecified)	113
Cc1[nH]c2ccccc2c1C=NNc1nc(=Nc2ccccc2)[nH]c(=Nc2ccccc2)[nH]1	926
CC[C@H]1CN2CCc3cc(OC)c(OC)cc3[C@@H]2C[C@@H]1C[C@H]1NCCc2c1cc(OC)c(OC)c2Br	650
CC(=O)Nc1ccc(COc2ccc(Nc3ccnc4cc(-c5ccccn5)ccc34)cc2)cc1	196
O=C(N[C@@H](Cc1ccccc1)C(=O)NCCN1CCOCC1)c1ccc(O)c(-c2ccc(Cl)c(Cl)c2)c1	921
CC(C)(CN)c1cc(-c2ccc(Cl)c(O)c2)c(-c2ccncc2)o1	1140
COc1nc2c(CCN3CCC(NCc4ccc5c(n4)NC(=O)CO5)CC3)c(Cl)cnc2cc1F	418
COCCNCc1ccc(-c2ccc3c(Nc4ccc(Cl)cc4F)ccnc3c2)o1	206
Nc1nc(N)c2c(CCc3ccc(Cl)c(Cl)c3)cccc2n1	669
Cc1cccc2nc(-c3cccc(-c4ccc(NC(=O)CCc5c[nH]cn5)cc4)c3)[nH]c12	302

Compound	XC50 [nM]
CNCCNCc1cccc(-c2ccc(-c3nc4ccccc4[nH]3)s2)c1	830
CCOc1cc(C(=O)N[C@@H](Cc2ccccc2)[C@H](O)CNCc2cc(OC)cc(OC)c2)cc(N2CCCC2=O)c1	852
CC(=NNC(S)=NCCc1ccccn1)c1ccccn1	319
CCCOc1ccccc1-c1nc2[nH]c3c(c2c(=O)[nH]1)CCN(C)C3	367
CCOC(=O)NCCSC(C)(C)[C@H](NC(=O)[C@H](Cc1cc2ccccc2s1)[C@H](CC)N(O)C=O)C(=O)Nc1nccs1	296
COc1cc2c(cc1NC(=O)CN1CCN(C(=O)c3ccco3)CC1)oc1ccccc12	422
Cc1cc(Br)cnc1CCCCNc1cc(=O)c2ccccc2[nH]1	1160
CCc1ccc(Cc2cnc3nc(N)nc(N)c3c2C)cc1CC	285
CCOc1cc(Cl)c(C(C)NC(=O)c2ccccc2)cc1OCC (stereo unspecified)	875
Cc1nc(N)nc(N)c1C#CC1CCCC1	768
Cc1cc(Cl)ccc1OC(C)C(=O)N1CCc2ccccc21 (stereo unspecified)	668
CC1CCCN(C(=O)C(C)Nc2cc(Cl)ccc2N2CCOCC2)C1 (stereo unspecified)	316
CCc1c(C)nc(-n2nc(C)cc2NC(=O)CC(c2ccccc2)c2ccccc2)[nH]c1=O	652
CC(C)(C)c1ccc(CN2CCC(CNC(=O)c3cc(-c4ccccc4)nc4ccccc34)CC2)cc1	1020
CC1CCN(C(=O)C(Cc2c[nH]c3ccccc23)NS(=O)(=O)c2ccc(Cl)cc2)CC1 (stereo unspecified)	717
C=CCn1c(=N)n(CC(O)c2ccc(Cl)c(Cl)c2)c2ccccc21 (stereo unspecified)	338
CCc1cn2c3c(cc(C(=O)N[C@@H](Cc4ccccc4)[C@H](O)CNC(C)C)cc13)N(C)S(=O)(=O)C2	317
CN1CCN(c2cc(-c3cccnc3)nc(-c3ccncc3)n2)CC1	554
Cc1ccc(-c2cc(C(=O)Nc3ccc(S(=O)(=O)N4CCCC(C)C4)cc3)[nH]n2)c(O)c1 (stereo unspecified)	280
CN1CCN(c2cccc(-c3nnc(-c4ccc(OCC(=O)NCc5ccc(C(F)(F)F)cc5)c([N+](=O)[O-])c4)o3)c2)CC1	661
CC(=O)Nc1cccc(-c2cn(-c3ccc(OCc4cccc(F)c4)c(Cl)c3)c3ncncc23)c1	70.9
Cc1ccccc1C1CCN(C2CCC(NC(=O)c3cc(-c4ccc(Cl)cc4)cs3)CC2)CC1 (stereo unspecified)	158
CCNc1cc(C(=O)N[C@@H](Cc2ccccc2)[C@H](O)CNCCc2cccc(C(F)(F)F)c2)cc(N2CCCC2=O)c1	879
